Assay: Photostability, illumination with high intensity mercury lamp
Type: physicochemical
Conditions: methanol solution; dissolved in methanol (4 mmol/l), mercury lamp 200-600 nm; read-out: Half-life of decomposition during illumination

half-life at 4 mmol/l: 1.08 h
Compound: COc1cc(/C=C/C(=O)CC(=O)/C=C/c2ccc(O)c(OC)c2)ccc1O [curcumin]
